# Measurements: patent US11071789B2, “Pharmaceutical prodrugs and methods of their preparation and use” (CEPHALON, INC., priority 2016, dated 2021)
# Where two headings read alike, the source gives them in different places.
# Legend:
# [1] = female, SCID, mouse, in vivo, iv
# [2] = SCID, mouse, in vivo, iv
# [3] = Dox-Hyd-C18 nanoparticles: plasma, liver and lung levels in female SCID mice; type: in vivo; details: about 1.8 mg-eq/kg IV
# [4] = Dox-Hyd-C12 nanoparticles: plasma, liver and lung levels in female SCID mice; details: Dox-Hyd-C12 nanoparticle study, about 2.2 mg-eq/kg IV
SMILES,AUC0-t [1],AUC0-∞ [1],tmax [1],tmax [2],doxorubicin from hydrolysis of prodrug in tissue [3],time nanoparticles circulate in plasma [3],doxorubicin from hydrolysis of prodrug in tissue [4]
"Cn1c(CCCC(=O)O)nc2cc(N(CCCl)CCCl)ccc21 [Bendamustine, bendamustine]",566 ng·h/mL,589 ng·h/mL,0083 h,4.98 min,–,–,–
CCCCCCCCCCCCCCCCCC(=O)NN=C(CO)[C@]1(O)Cc2c(O)c3c(c(O)c2[C@@H](O[C@H]2C[C@H](N)[C@H](O)[C@H](C)O2)C1)C(=O)c1c(OC)cccc1C3=O [Dox-Hyd-C18],–,–,–,–,detected in liver and lung tissue,up to 24 hours,detected in liver and lung tissue
